# In patent US6562802B2, “Medical composition and uses thereof” (Noviscens AB, priority 1996, dated 2003):
# How the values were obtained:
# UV B radiation = experiment: biological light protection factor against UV B radiation, erythema score on skin of volunteers; type: in vivo, human; conditions: 5.0% (w/w) in petrolatum, light exposure for 16 and 32 seconds, two volunteers
# Experimental: The biological light protection factor of the sunscreen formulation was determined at two concentrations of the active agent, P-PABA. The two formulations were prepared and tested at a concentration of 5.0% and 10% (w/w). For comparison, one control sunscreen agent was also studied. The UV B protection agent, ethylhexyl-4-dimethylaminobenzoic acid (EHD-PABA) was prepared at a concentration of 5.0% (w/w) in petrolatum. The test was performed on the skin of two volunteers, under standardized conditions by application of 0.1 ml of the formulation per 100 cm^2 of skin area on their backs.
# An Osram Ultravitalux lamp was used as light source. The light protection factor was determined and compared to vehicle and untreated skin after light exposure on cylindrical (1.0 cm i.d.) skin areas for 16 and 32 seconds. The results were evaluated from intensity of the erythema score (FIG. 8; A) untreated control, b) 10% P-PABA, c) 5% P-PABA, D) vehicle, and E) EHD-PABA. Light exposure as indicated on each skin area for 16 seconds (left) and 32 seconds (right)). The biological protection against UV B radiation obtained by the UV B standard EHD-PABA absorber was almost similar to the protection by the polymeric P-PABA derivative.
# [1] = sunscreen index according to Kumler (UV absorbing characteristics); type: physicochemical
Molecule,protection against UV B radiation (erythema score) (UV B radiation),Sunscreen index [1]
"CCCCC(CC)COC(=O)c1ccc(N(C)C)cc1 (stereo not shown) [EHD-PABA, ethylhexyl-4-dimethylaminobenzoic acid]",insufficient at 32 seconds in one of the volunteers,
"Nc1ccc(C(=O)O)cc1 [p-aminobenzoic acid (reference), p-aminobenzoic acid]",,7.4
PE-N-aminobenzoic acid [P-PABA],complete,6.2
